How the values were obtained:
[1] = biological target: T1, human CYP11B2 (Homo sapiens, UniProt P19099); test: V79-Human-CYP11B2 cell assay; type: cell-based; settings: V79 cells stably expressing human CYP11B2; 125 nM 11-deoxycorticosterone substrate; aldosterone by HTRF
T1 construct: expressed in transfected cells; host or cells: V79 cells (clone V79-hCYP11B2-CLE9)
T1 sequence (P19099 25-503): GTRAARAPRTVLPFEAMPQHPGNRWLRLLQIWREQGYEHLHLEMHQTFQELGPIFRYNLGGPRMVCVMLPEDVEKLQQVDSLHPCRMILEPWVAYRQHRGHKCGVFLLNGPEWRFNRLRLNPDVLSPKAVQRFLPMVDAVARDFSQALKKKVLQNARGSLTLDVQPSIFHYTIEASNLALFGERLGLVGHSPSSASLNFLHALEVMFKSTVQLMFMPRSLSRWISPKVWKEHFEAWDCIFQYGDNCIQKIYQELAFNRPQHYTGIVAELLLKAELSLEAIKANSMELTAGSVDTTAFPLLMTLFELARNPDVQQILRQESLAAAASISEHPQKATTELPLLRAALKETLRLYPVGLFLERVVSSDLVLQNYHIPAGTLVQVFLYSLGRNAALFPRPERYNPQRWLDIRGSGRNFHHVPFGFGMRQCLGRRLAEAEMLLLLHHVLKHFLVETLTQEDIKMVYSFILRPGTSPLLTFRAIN
Protocol: (§1) Methods for V79-Human-CYP11B2 and V79-Human-CYP11B1 Assays: V79 cell lines stably expressing the either the human CYP11B2 or the human CYP11B1 enzyme were generated using a standard transfection protocol. V79 cells were transfected with plasmids pTriEx3-Hygro-hCyp11B2 or pTriEx3-Hygro-hCyp11B1 using Lipofectamine2000 reagent. […] Single cell clones were generated by […] in DMEM supplemented with 10% FBS and 400 μg/mL hygromycin until single colonies were obtained. […] The reaction was carried out for 3 hours at 37° C., 5% CO2 and was stopped by harvesting the supernatants. […] IC50s for the inhibitor were determined by plotting the amount of product formed against the concentration of inhibitor using sigmoidal dose-response curve (variable slope) fit in GraphPad.

[2] = biological target: T2, human CYP11B1 (Homo sapiens, UniProt P15538); test: V79-Human-CYP11B1 cell assay; type: cell-based; settings: V79 cells stably expressing human CYP11B1; 250 nM 11-deoxycortisol substrate; cortisol by HTRF
T2 construct: expressed in transfected cells; host or cells: V79 cells (clone V79-hCYP11B1-8CLC7)
T2 sequence (P15538 25-503): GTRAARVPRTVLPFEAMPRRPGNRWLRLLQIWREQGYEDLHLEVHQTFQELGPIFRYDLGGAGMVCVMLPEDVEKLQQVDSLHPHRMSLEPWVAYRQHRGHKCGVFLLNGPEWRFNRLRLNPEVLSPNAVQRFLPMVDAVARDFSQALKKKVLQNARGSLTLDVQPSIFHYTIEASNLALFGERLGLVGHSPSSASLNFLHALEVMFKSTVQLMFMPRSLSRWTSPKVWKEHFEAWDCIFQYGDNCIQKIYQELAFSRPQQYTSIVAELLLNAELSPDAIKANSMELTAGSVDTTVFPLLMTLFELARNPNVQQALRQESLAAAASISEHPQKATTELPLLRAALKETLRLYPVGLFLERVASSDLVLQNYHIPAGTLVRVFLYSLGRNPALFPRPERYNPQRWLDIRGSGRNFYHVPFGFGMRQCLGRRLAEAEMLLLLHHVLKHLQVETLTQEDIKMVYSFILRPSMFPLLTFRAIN
Protocol: as §1

Structure (SMILES)	IC50 [1] [nM]	IC50 [2] [nM]
Fc1cc2cnn(-c3cncc4ccccc34)c2cc1F [Example 46, 4-(5,6-difluoro-1H-indazol-1-yl)isoquinoline]	1.9	107
CCc1c(F)cncc1-n1ncc2c(F)cccc21 [Example 42, 1-(4-ethyl-5-fluoropyridin-3-yl)-4-fluoro-1H-indazole]	131	1800
Fc1ccc2c(cnn2-c2cncc(C(F)(F)F)c2)c1 [Example 6, 5-fluoro-1-(5-(trifluoromethyl)pyridin-3-yl)-1H-indazole]	83	1910
CC(C)(O)c1cncc(-n2ncc3cccc(F)c32)c1 [Example 68, 2-(5-(7-fluoro-1H-indazol-1-yl)pyridin-3-yl)propan-2-ol]	1.2	36.4
CC(C)(O)c1cncc(-n2ncc3cc(F)c(F)cc32)c1 [Example 54, 2-(5-(5,6-difluoro-1H-indazol-1-yl)pyridin-3-yl)propan-2-ol]	23	305
Cc1nn(-c2cncc(C(F)(F)F)c2)c2cccc(F)c12 [Example 36, 4-fluoro-3-methyl-1-(5-(trifluoromethyl)pyridin-3-yl)-1H-indazole]	17	257

Continued, values first:

IC50 [1] [nM]	IC50 [2] [nM]	Structure (SMILES)
2.2	98	C[C@](O)(c1cncc(-n2ncc3c(C(F)(F)F)cccc32)c1)C(F)(F)F [Example 85, (S)-1,1,1-trifluoro-2-(5-(4-(trifluoromethyl)-1H-indazol-1-yl)pyridin-3-yl)propan-2-ol]
7.7	498	CC(O)(c1cncc(-n2ncc3c2CCCC3)c1)C(F)(F)F (centres unmarked) [Example 75]
17.5	633	CN(C)c1cncc(-n2ncc3c(Cl)cccc32)n1 [Example 88, 6-(4-chloro-1H-indazol-1-yl)-N,N-dimethylpyrazin-2-amine]
1.6	31.5	Clc1cccc2c1cnn2-c1cncc(N2CCC2)n1 [Example 90, 1-(6-azetidin-1-ylpyrazin-2-yl)-4-chloro-1H-indazole]
